Laboratory results as given in patent publication US20230265151A1, “GIP/GLP1 CO-AGONIST COMPOUNDS” (priority 2020, published 2023).
Read-outs that look alike come from different tables or passages of the source.

What was measured:
Type in all cases: cell-based
hGCGR = target: T1, hGCGR (Homo sapiens, UniProt P47871); assay: Functional cAMP formation (HTRF) in HEK-293 clonal cells expressing hGCGR, 0.1% bovine casein, without or with 1.0% human serum albumin
T1 construct: expressed in transfected cells
T1 sequence (P47871 26-477): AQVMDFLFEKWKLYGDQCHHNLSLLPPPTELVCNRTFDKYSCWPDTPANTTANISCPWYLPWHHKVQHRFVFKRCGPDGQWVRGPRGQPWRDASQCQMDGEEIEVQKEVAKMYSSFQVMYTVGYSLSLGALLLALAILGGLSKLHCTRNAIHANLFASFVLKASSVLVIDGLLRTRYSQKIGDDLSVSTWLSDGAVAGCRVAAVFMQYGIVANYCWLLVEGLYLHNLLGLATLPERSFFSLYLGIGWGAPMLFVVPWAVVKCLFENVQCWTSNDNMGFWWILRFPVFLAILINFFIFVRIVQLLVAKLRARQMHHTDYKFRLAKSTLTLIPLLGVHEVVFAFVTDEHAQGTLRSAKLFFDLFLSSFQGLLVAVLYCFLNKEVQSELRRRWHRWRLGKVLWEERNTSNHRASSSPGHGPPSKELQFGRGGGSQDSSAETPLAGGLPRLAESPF
Method in brief: (§1)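 Cells were stimulated with peptide for 30 min at 37° C, then lysed in buffer carrying cAMP-d2 and anti-cAMP Eu3+-cryptate for a competitive HTRF read after at least 60 min at room temperature. The 665/620 nm ratio was converted to nM cAMP against a standard curve.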

hGIPR = target: T2, hGIPR (Homo sapiens, UniProt P48546); assay: Functional cAMP formation (HTRF) in HEK-293 clonal cells expressing hGIPR, 0.1% bovine casein, without or with 1.0% human serum albumin; details: for EC50: hGIPR EC50, nM (SEM, n)
T2 construct: expressed in transfected cells
T2 sequence (P48546 22-466): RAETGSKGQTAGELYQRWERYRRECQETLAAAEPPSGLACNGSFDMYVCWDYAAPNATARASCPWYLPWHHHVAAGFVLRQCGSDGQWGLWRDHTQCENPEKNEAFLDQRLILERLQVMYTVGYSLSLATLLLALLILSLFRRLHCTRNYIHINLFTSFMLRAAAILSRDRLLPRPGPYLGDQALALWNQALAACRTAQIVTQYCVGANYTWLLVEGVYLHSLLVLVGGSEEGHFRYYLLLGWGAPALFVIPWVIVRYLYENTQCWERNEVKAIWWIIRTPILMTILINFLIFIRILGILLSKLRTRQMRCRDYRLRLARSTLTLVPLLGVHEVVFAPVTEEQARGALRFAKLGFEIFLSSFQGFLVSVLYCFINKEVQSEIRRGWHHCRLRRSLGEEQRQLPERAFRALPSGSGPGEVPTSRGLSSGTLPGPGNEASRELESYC
Method in brief: as §1

hGLP-1R = hGLP-1R (Homo sapiens, UniProt P43220); assay: Functional cAMP formation (HTRF) in HEK-293 clonal cells expressing hGLP-1R, 0.1% bovine casein, without or with 1.0% human serum albumin; set-up: expressed in transfected cells; details: for EC50: geometric mean
hGLP-1R, sequence (P43220 24-463): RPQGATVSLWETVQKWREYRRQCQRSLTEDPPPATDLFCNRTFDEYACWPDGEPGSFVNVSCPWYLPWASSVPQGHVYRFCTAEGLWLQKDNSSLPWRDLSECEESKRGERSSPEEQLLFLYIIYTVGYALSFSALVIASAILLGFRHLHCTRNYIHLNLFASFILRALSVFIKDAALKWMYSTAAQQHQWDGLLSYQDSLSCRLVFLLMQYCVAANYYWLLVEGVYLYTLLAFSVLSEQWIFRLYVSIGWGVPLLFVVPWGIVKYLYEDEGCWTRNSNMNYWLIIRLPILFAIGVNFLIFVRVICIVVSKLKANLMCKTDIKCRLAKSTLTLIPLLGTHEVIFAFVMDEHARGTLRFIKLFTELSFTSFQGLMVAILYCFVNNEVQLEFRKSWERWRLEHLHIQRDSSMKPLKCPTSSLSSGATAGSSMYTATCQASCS
Method in brief: as §1

[1] = hGCGR EC50, nM (SEM, n), cAMP, incubated at 37° C., 0.1% bovine casein (no human serum albumin), geometric mean
[2] = cAMP, incubated at 37° C., 0.1% bovine casein (no human serum albumin), geometric mean

CC[C@H](C)[C@H](NC(=O)[C@H](CC(C)C)NC(=O)[C@](C)(Cc1ccc(O)cc1)NC(=O)[C@H](CCCCNC(=O)COCCOCCNC(=O)COCCOCCNC(=O)CC[C@H](NC(=O)CCCCCCCCCCCCC(=O)O)C(=O)O)NC(=O)[C@@H](NC(=O)[C@](C)(Cc1ccccc1)NC(=O)[C@H](CCC(=O)O)NC(=O)C(C)(C)NC(=O)[C@H](CCC(N)=O)NC(=O)[C@H](C)NC(=O)[C@H](CCCCNC(=O)COCCOCCNC(=O)COCCOCCNC(=O)CC[C@H](NC(=O)CCCCCCCCCCCCC(=O)O)C(=O)O)NC(=O)[C@H](CCCN)NC(=O)[C@H](CC(=O)O)NC(=O)[C@H](CC(C)C)NC(=O)[C@](C)(CC(C)C)NC(=O)[C@@H](NC(=O)[C@H](CO)NC(=O)[C@H](Cc1ccncc1)NC(=O)[C@H](CC(=O)O)NC(=O)[C@H](CO)NC(=O)[C@@H](NC(=O)[C@](C)(Cc1ccccc1F)NC(=O)[C@@H](NC(=O)CNC(=O)[C@H](CCC(=O)O)NC(=O)C(C)(C)NC(=O)[C@@H](N)Cc1ccc(O)cc1)[C@@H](C)O)[C@@H](C)O)[C@@H](C)CC)[C@@H](C)CC)C(=O)N[C@@H](CCC(=O)O)C(=O)NCC(=O)NCC(=O)N1CCC[C@H]1C(=O)N[C@@H](CO)C(=O)N[C@@H](CO)C(=O)NCC(=O)N[C@@H](C)C(=O)N1CCC[C@H]1C(=O)N1CCC[C@H]1C(=O)N1CCC[C@H]1C(=O)N[C@@H](CO)C(N)=O [Example 82]
EC50 (hGCGR; [1]): > 9950 nM | Emax (hGIPR; HEK293, read-out: hGIPR Emax, % ± SEM, percent of maximal response to GIP(1-42)NH2, 37° C., 0.1% bovine casein, arithmetic mean): 81.4 ± 6.09% | EC50 (hGIPR; [2]): 0.0206 nM | EC50 (hGLP-1R; hGLP-1R EC50, nM (SEM, n), cAMP, incubated at 37° C., 0.1% bovine casein (no human serum albumin)): 4.78 nM

CC[C@H](C)[C@H](NC(=O)[C@H](CC(C)C)NC(=O)[C@](C)(Cc1ccc(O)cc1)NC(=O)[C@@H](CCC(=O)O)NC(=O)[C@@H](NC(=O)[C@H](Cc1ccccc1)NC(=O)[C@H](CCC(=O)O)NC(=O)C(C)(C)NC(=O)[C@H](CCC(N)=O)NC(=O)[C@H](C)NC(=O)[C@H](CCCCNC(=O)COCCOCCNC(=O)COCCOCCNC(=O)CC[C@H](NC(=O)CCCCCCCCCCCCC(=O)O)C(=O)O)NC(=O)[C@H](CCCN)NC(=O)[C@H](CC(=O)O)NC(=O)[C@H](CC(C)C)NC(=O)[C@](C)(CC(C)C)NC(=O)[C@@H](NC(=O)[C@H](CO)NC(=O)C1(NC(=O)[C@H](CC(=O)O)NC(=O)[C@H](CO)NC(=O)[C@@H](NC(=O)[C@](C)(Cc2ccccc2F)NC(=O)[C@@H](NC(=O)CNC(=O)[C@H](CCC(=O)O)NC(=O)C(C)(C)NC(=O)[C@@H](N)Cc2ccc(O)cc2)[C@@H](C)O)[C@@H](C)O)CCCCC1)[C@@H](C)CC)[C@@H](C)CC)C(=O)N[C@@H](CCC(=O)O)C(=O)NCC(=O)NCC(=O)N[C@@H](CCCCNC(=O)COCCOCCNC(=O)COCCOCCNC(=O)CC[C@H](NC(=O)CCCCCCCCCCCCC(=O)O)C(=O)O)C(=O)N[C@@H](CO)C(=O)N[C@@H](CO)C(=O)NCC(=O)N[C@@H](C)C(=O)N1CCC[C@H]1C(=O)N1CCC[C@H]1C(=O)N1CCC[C@H]1C(=O)N[C@@H](CO)C(N)=O [Example 54]
EC50 (hGCGR; 0.1% bovine casein and 1.0% human serum albumin, 37° C., geometric mean, read-out: hGCGR EC50, nM (SEM, n)): > 9950 nM | EC50 (hGCGR; cAMP, incubated at 37° C., 0.1% bovine casein (no human serum albumin), geometric mean, read-out: hGCGR EC50, nM (SEM, n)): > 9950 nM | Emax (hGIPR; HEK293, 0.1% bovine casein and 1.0% human serum albumin, 37° C., percent of maximal response to GIP(1-42)NH2, read-out: hGIPR Emax, % ± SEM): 85.6% | Emax (hGIPR; HEK293, percent of maximal response to GIP(1-42)NH2, 37° C., 0.1% bovine casein, arithmetic mean, read-out: hGIPR Emax, % ± SEM): 113% | EC50 (hGLP-1R; 0.1% bovine casein and 1.0% human serum albumin, 37° C., read-out: hGLP-1R EC50, nM (SEM, n)): 20.3 nM

CC[C@H](C)[C@H](NC(=O)[C@H](CCCN)NC(=O)[C@H](CC(=O)O)NC(=O)[C@H](CC(C)C)NC(=O)[C@](C)(CC(C)C)NC(=O)[C@@H](NC(=O)C(C)(C)NC(=O)[C@H](Cc1ccc(O)cc1)NC(=O)[C@H](CC(=O)O)NC(=O)[C@H](CO)NC(=O)[C@@H](NC(=O)[C@](C)(Cc1ccccc1F)NC(=O)[C@@H](NC(=O)CNC(=O)[C@H](CCC(=O)O)NC(=O)C(C)(C)NC(=O)[C@@H](N)Cc1ccc(O)cc1)[C@@H](C)O)[C@@H](C)O)[C@@H](C)CC)C(=O)N[C@@H](C)C(=O)N[C@@H](CCC(N)=O)C(=O)NC(C)(C)C(=O)N[C@@H](CCC(=O)O)C(=O)N[C@@H](Cc1ccccc1)C(=O)N[C@H](C(=O)N[C@@H](CCCCNC(=O)COCCOCCNC(=O)CC[C@H](NC(=O)CCCCCCCCCOc1ccc(C(=O)O)cc1)C(=O)O)C(=O)N[C@@](C)(Cc1ccc(O)cc1)C(=O)N[C@@H](CC(C)C)C(=O)N[C@H](C(=O)N[C@@H](CCCCNC(=O)COCCOCCNC(=O)CC[C@H](NC(=O)CCCCCCCCCOc1ccc(C(=O)O)cc1)C(=O)O)C(=O)NCC(=O)NCC(=O)N1CCC[C@H]1C(=O)N[C@@H](CO)C(=O)N[C@@H](CO)C(=O)NCC(=O)N[C@@H](C)C(=O)N1CCC[C@H]1C(=O)N1CCC[C@H]1C(=O)N1CCC[C@H]1C(=O)N[C@@H](CO)C(N)=O)[C@@H](C)CC)[C@@H](C)CC [Example 375]
EC50 (hGCGR; hGCGR EC50, nM (SEM, n), cAMP, 37° C., 0.1% bovine casein (no human serum albumin), geometric mean): > 9950 nM | EC50 (hGCGR; hGCGR EC50, nM (SEM, n), cAMP, 37° C., 0.1% bovine casein and 1.0% human serum albumin, geometric mean (SEM, n)): > 9950 nM | Emax (hGIPR; HEK293, read-out: hGIPR Emax, % ± SEM, cAMP, 37° C., 0.1% bovine casein and 1.0% human serum albumin, percent of maximal response to GIP(1-42)NH2): 85.4% | Emax (hGIPR; HEK293, read-out: hGIPR Emax, % ± SEM, cAMP, 37° C., 0.1% bovine casein, percent of maximal response to GIP(1-42)NH2, arithmetic mean): 100% | EC50 (hGIPR; cAMP, 37° C., 0.1% bovine casein (no human serum albumin), geometric mean): 0.0566 nM | EC50 (hGIPR; cAMP, 37° C., 0.1% bovine casein and 1.0% human serum albumin, geometric mean (SEM, n)): 4.68 nM | Emax (hGLP-1R; HEK293, read-out: hGLP-1R Emax, % ± SEM, cAMP, 37° C., 0.1% bovine casein and 1.0% human serum albumin, percent of maximal response to GLP-1(7-36)NH2): 113% | EC50 (hGLP-1R; hGLP-1R EC50, nM (SEM, n), cAMP, 37° C., 0.1% bovine casein (no human serum albumin)): 1.11 nM

CC[C@H](C)[C@H](NC(=O)[C@H](CC(C)C)NC(=O)[C@](C)(Cc1ccc(O)cc1)NC(=O)[C@H](CCCCNC(=O)COCCOCCNC(=O)COCCOCCNC(=O)CC[C@H](NC(=O)CCCCCCCCCCCCC(=O)O)C(=O)O)NC(=O)[C@@H](NC(=O)[C@H](Cc1ccccc1)NC(=O)[C@H](CCC(=O)O)NC(=O)C(C)(C)NC(=O)[C@H](CCC(N)=O)NC(=O)[C@H](C)NC(=O)[C@H](CCCCNC(=O)COCCOCCNC(=O)COCCOCCNC(=O)CC[C@H](NC(=O)CCCCCCCCCCCCC(=O)O)C(=O)O)NC(=O)[C@H](CCCN)NC(=O)[C@H](CC(=O)O)NC(=O)[C@H](CC(C)C)NC(=O)[C@](C)(CC(C)C)NC(=O)[C@@H](NC(=O)[C@](C)(CO)NC(=O)[C@H](Cc1ccncc1)NC(=O)[C@H](CC(=O)O)NC(=O)[C@H](CO)NC(=O)[C@@H](NC(=O)[C@](C)(Cc1ccccc1F)NC(=O)[C@@H](NC(=O)CNC(=O)[C@H](CCC(=O)O)NC(=O)C(C)(C)NC(=O)[C@@H](N)Cc1ccc(O)cc1)[C@@H](C)O)[C@@H](C)O)[C@@H](C)CC)[C@@H](C)CC)C(=O)N[C@@H](CCC(=O)O)C(=O)NCC(=O)NCC(=O)N1CCC[C@H]1C(=O)N[C@@H](CO)C(=O)N[C@@H](CO)C(=O)NCC(=O)N[C@@H](C)C(=O)N1CCC[C@H]1C(=O)N1CCC[C@H]1C(=O)N1CCC[C@H]1C(=O)N[C@@H](CO)C(N)=O [Example 214]
EC50 (hGCGR; hGCGR EC50, nM (SEM, n), 0.1% bovine casein and 1.0% human serum albumin, 37° C., geometric mean): > 9950 nM | EC50 (hGCGR; [1]): > 9950 nM | Emax (hGIPR; HEK293, read-out: hGIPR Emax, % ± SEM, 0.1% bovine casein and 1.0% human serum albumin, 37° C., percent of maximal response to GIP(1-42)NH2): 80.4% | EC50 (hGIPR; 0.1% bovine casein and 1.0% human serum albumin, 37° C., geometric mean): 2.03 nM | EC50 (hGIPR; [2]): 0.0351 nM | Emax (hGLP-1R; HEK293, read-out: hGLP-1R Emax, % ± SEM, percent of maximal response to GLP-1(7-36)NH2, 37° C., 0.1% bovine casein, arithmetic mean): 93.2% | EC50 (hGLP-1R; hGLP-1R EC50, nM (SEM, n), 0.1% bovine casein and 1.0% human serum albumin, 37° C.): 17.9 nM
